One block for each compound: values may come before it.
What was measured:
[1] = test system: ovariectomized (OVX) female Sprague-Dawley rats; experiment: Antiosteoporosis activity in vivo: bone mineral density in ovariectomized rats; design: species or system rat; conditions: oral once daily days 1-30 post-ovariectomy
Protocol: Test Procedure for Evaluation of Antiosteoporosis Activity in Vivo:
(§1) The in vivo antiosteoporosis activity is evaluated in colony-bred adult (3-4 month old) female Sprague-Dawley rats or female retired breeder Sprague-Dawley rats ([…]; parity≧3). Animals are bilaterally ovariectomized (OVX) under light ether anesthesia and treated with the compound of the present invention, 17-alfa-ethynylestradiol (EE) or the vehicle once daily on days 1-30 post-ovariectomy (day 1: day of bilateral ovariectomy) by the oral route. One group consisting of females is sham operated and treated similarly with the vehicle. Animals of all the groups are autopsied 24 h after the last treatment. Before autopsy, 24 h fasting urine samples are collected in fresh containers using all-glass metabolic cages and stored at −20° C. until analyzed for calcium, phosphorus and creatinine. At autopsy, about 5 ml blood samples are collected by cardiac puncture from each rat under light ether anesthesia and serum is isolated and stored at −20° C. until analyzed for total and bone specific alkaline phosphatase, osteocalcin and calcium. Uterus of each rat is carefully excised, gently blotted, weighed and fixed for histology. Representative sections (5 μm) from each uterus are stained with haematoxylin and eosin. Femur and tibia of each rat are then dissected free of adhering tissue, fixed in 70% ethanol in physiological saline and stored at −20° C. until Bone Mineral Density (BMD) measurement. Before autopsy, whole body scan of each rat for measurement of BMD is performed on an Hologic QDR-4500A fan-beam densitometer, calibrated daily with Hologic hydroxyapatite anthropomorphic spine phantom using manufacturer provided software for small animals. BMD measurement of isolated bones is performed using identical regions of interest. Serum total alkaline phosphatase, osteocalcin, calcium ion content and urinary calcium and creatinine are estimated colorimetrically using commercial kits (Table 2).

[2] = test system: ovariectomized (OVX) female Sprague-Dawley rats; experiment: Anti-hyperlipidaemic activity: blood serum total cholesterol in OVX rats; format: in vivo, rat; conditions: days 1-30; for Total Cholesterol: blood serum
Protocol: Test Procedure for Evaluation of Anti-Hyperlipidaemic Activity:
The in vivo anti-hyperlipidaemic activity is evaluated in colony-bred adult (3-4 month old) female Sprague-Dawley rats or female retired breeder Sprague-Dawley rats ([…]; parity≧3). Animals are bilaterally ovariectomized (OVX) under light ether anesthesia and treated with the compound of the present invention, 17-alfa-ethynylestradiol (EE) or the vehicle once daily on days 1-30 post-ovariectomy (day 1: day of bilateral ovariectomy) by the oral route. One group consisting of females is sham operated and treated similarly with the vehicle. Animals of all the groups are autopsied 24 h after the last treatment. At autopsy, about 5 ml blood samples are collected by cardiac puncture from each rat under light ether anesthesia and serum is isolated and stored at −20° C. until analyzed for total cholesterol. The total cholesterol concentration is measured by a timed-end point method using a Beckman Synchron CX autoanalyser. In the reaction, cholesterol estrase hydrolyses cholesterol esters to free cholesterol and fatty acids. Free cholesterol is oxidized to cholestene-3-one and H2O2 by cholesterol oxidase. Peroxidase catalyses the reaction of H2O2 with 4-amino antipyrine and phenol to produce a colored quinoneimine product. Absorbance is recorded at 520 nm (Table 3).

immature OVX rats [3] = experiment: Estrogen agonistic activity: uterine weight and morphometry in immature OVX rats; format: in vivo, rat
Protocol: Test Procedure for Evaluation of Estrogen Agonistic Activity:
Twenty-one-day-old immature female rats are bilaterally ovariectomized under light ether anesthesia and, after post-operative rest for 7 days, are randomized into different treatment groups. Each rat receives the compound of the invention once daily for 3 consecutive days on days 28-30 of age. A separate group consisting of animals receiving only the vehicle for similar duration serves as control. At autopsy 24 h after the last treatment on day 31 of age, vaginal smear of each rat is taken and uterus is carefully excised, gently blotted, weighed and fixed for histology and histomorphometry using image analysis. Premature opening of vagina, cornification of vaginal epithelium, increase in uterine fresh weight, total uterine and endometrial area and uterine luminal epithelial cell height are taken as parameters for evaluation of estrogen agonistic activity in comparison to rats of vehicle control group (Table 6).
(§2) For image analysis in estrogen agonistic activity evaluation studies, paraffin sections (6 μm thick) of the uterus stained with haematoxylin and eosin were analyzed microscopically. To determine changes in uterine tissue components, areas of whole uterus and endometrium and the thickness of uterine epithelium were measured using a computer-image analysis system (BioVis, Expert Vision, India). Briefly, microscopic images of uterus acquired through a CCD camera were loaded in to the image analysis program and spatially calibrated against a stage micrometer image taken at the same magnification. Using thresholding and line tools, the regions for measurements were selected and the area (mm^2) of whole uterine transection excluding the luminal space, the area (mm^2) of the endometrium only, and the thickness (μm) of luminal epithelial lining were measured. Luminal epithelial thickness data was the average of measurements made at 6 randomly selected sites of the lining (Table 7).

retired breeder OVX rats = experiment: Estrogen agonistic activity: uterine weight and morphometry in retired breeder OVX rats; format: in vivo, rat
Protocol: as §1, §2

[4] = test system: chick fetal bones in culture; experiment: Inhibition of PTH-induced resorption of 45Ca from chick fetal bones in culture (antiresorptive activity in vitro); format: cell-based; conditions: for T/C Ratio: PTH-induced 45Ca resorption, 96 h culture
Protocol: Test Procedure for Evaluation of Antiosteoporosis (Antiresorptive) Activity in Vitro:
Test solutions of the compounds of the present invention are prepared in appropriate solvents in concentration range of 5 millimolar to 400 millimolar, most preferably in concentrations of 20 millimolar. 5 μl of each concentration are used for evaluation of antiresorptive activity in vitro. In control experiments, 5 μl of appropriate solvent is used in lieu of test compound. Femur bones are isolated from chick embryos on day 11 post-ovulation. The adhering soft connective tissue is completely removed. Each femur bone is then placed in a drop of phosphate buffered saline (PBS) and is transferred to BGJb culture medium containing ^45CaCl2 and incubated for 2 h. Labeled femur bones are washed 2-3 times with PBS and transferred to BGJb medium containing parathyroid hormone and cultured for 96 h in the presence or absence of the compound of invention or the vehicle in BGJb medium. Contralateral femur of each fetus serves as corresponding control. Culture medium with the respective treatment in each well is changed after 48 h. On termination of the culture at 96 h, bones are transferred to 0.1 N HCl for 24 h. Radioactivity due to ^45Ca in the spent medium collected at 48 and 96 h of culture and HCl extract at 96 h of culture is quantified by Liquid Scintillation Spectrophotometer in 10 ml of the scintillation fluid. Bone resorbing activity is expressed as percentage of ^45Ca released into the culture medium and the effect of the compound of invention as percent of the corresponding contra-lateral control or T/C ratio as shown below:
Appropriate solvents are selected from solvents like water, normal saline, phosphate buffered saline, phosphate buffer, DMSO alone or in a suitable combination thereof.
It was devoid of any pos-coital antifertility and estrogenic activities in rats.

immature OVX rats [5] = experiment: Estrogen antagonistic activity: inhibition of EE-induced uterine weight gain in immature OVX rats; format: in vivo, rat; conditions: daily dose 10 mg/kg with 0.02 mg/kg 17-alfa-ethynylestradiol, 3 days
Protocol: Test Procedure for Evaluation of Estrogen Antagonistic Activity:
Twenty-one-day-old immature female rats are bilaterally ovariectomized under light ether anesthesia and after post-operative rest for 7 days, are randomized into different treatment groups. Each rat receives the compounds of the invention and 0.02 mg/kg dose of 17-alfa-ethynylestradiol in 10% ethanol-distilled water once daily for 3 consecutive days on days 28-30 of age. A separate group consisting of animals receiving only 17-alfa-ethynylestradiol (0.02 mg/kg) in 10% ethanol-distilled water for similar duration are used for comparison. At autopsy on day 31 of age, vaginal smear of each rat is taken and uterus is carefully excised, gently blotted, weighed and fixed for histology and histomorphometry using image analysis. Inhibition in 17-alfa-ethynylestradiol-induced premature opening of vagina, cornification of vaginal epithelium, increase in uterine fresh weight, total uterine and endometrial area and uterine luminal epithelial cell height are taken as parameters for evaluation of estrogen antagonistic activity (Table 8).

MCF-7 cells = experiment: Antiproliferative/cytotoxic activity in cultured MCF-7 cells (SRB assay); conditions: 48 h incubation

SMILES: C#C[C@]1(O)CC[C@H]2[C@@H]3CCc4cc(O)ccc4[C@H]3CC[C@@]21C [EE, 17-alfa-ethynylestradiol, reference compound]
Increase in BMD (g/cm^2): Percent of OVX + vehicle treatment group, Percent Increase ([1]; Femur Global): 16.1%
Increase in BMD (g/cm^2): Percent of OVX + vehicle treatment group, Percent Increase ([1]; Femur Neck): 13.5%
Increase in BMD (g/cm^2): Percent of OVX + vehicle treatment group, Percent Increase ([1]; Tibia Global): 3.8%
Increase in BMD (g/cm^2): Percent of OVX + vehicle treatment group, Percent Increase ([1]; Tibia proximal): 25.2%
Total Cholesterol ([2]; daily dose 0.50 mg/kg oral): <5 mg/dL
Endometrium Epithelial Cell Height (immature OVX rats [3]; daily dose 0.01 mg/kg): 33.65 μm
Endometrium Total Area (immature OVX rats [3]; daily dose 0.01 mg/kg): 0.57 mm^2
Increase in uterine weight: Percent of OVX + vehicle treatment group, Percent Increase (immature OVX rats [3]; daily dose 0.01 mg/kg): 419%
Uterus Total Area (immature OVX rats [3]; daily dose 0.01 mg/kg): 1.21 Mm^2
Endometrium Epithelial Cell Height (retired breeder OVX rats; daily dose 0.5 mg/kg): 46.36 μm
Endometrium Total Area (retired breeder OVX rats; daily dose 0.5 mg/kg): 4.07 mm^2
Increase in uterine weight: Percent of OVX + vehicle treatment group, Percent Increase (retired breeder OVX rats; daily dose 0.5 mg/kg): 260%
Uterus Total Area (retired breeder OVX rats; daily dose 0.5 mg/kg): 6.86 Mm^2

SMILES: CSc1ccc(C(=O)c2cccc3ccccc23)cc1 [Example 1, (4-Methylthiophenyl)-(naphth-1-yl)-ketone]
T/C Ratio ([4]; 25 μM): 0.77
T/C Ratio ([4]; 50 μM): 0.60
T/C Ratio ([4]; 100 μM): 0.44
Increase in BMD (g/cm^2): Percent of OVX + vehicle treatment group, Percent Increase ([1]; Femur Global): 8%
Increase in BMD (g/cm^2): Percent of OVX + vehicle treatment group, Percent Increase ([1]; Femur Neck): 13%
Increase in BMD (g/cm^2): Percent of OVX + vehicle treatment group, Percent Increase ([1]; Tibia Global): 3.7%
Increase in BMD (g/cm^2): Percent of OVX + vehicle treatment group, Percent Increase ([1]; Tibia proximal): 13.8%
Total Cholesterol ([2]; daily dose 10 mg/kg oral): 20.00 mg/dL
% Change in blood serum total cholesterol concentration ([2]; daily dose 10 mg/kg oral): 21.94%
Endometrium Epithelial Cell Height (immature OVX rats [3]; daily dose 10 mg/kg): 7.16 μm
Endometrium Total Area (immature OVX rats [3]; daily dose 10 mg/kg): 0.085 mm^2
Increase in uterine weight: Percent of OVX + vehicle treatment group, Percent Increase (immature OVX rats [3]; daily dose 10 mg/kg): 16%
Uterus Total Area (immature OVX rats [3]; daily dose 10 mg/kg): 0.105 Mm^2
Endometrium Epithelial Cell Height (retired breeder OVX rats; daily dose 10 mg/kg): 9.63 μm
Endometrium Total Area (retired breeder OVX rats; daily dose 10 mg/kg): 0.37 mm^2
Increase in uterine weight: Percent of OVX + vehicle treatment group, Percent Increase (retired breeder OVX rats; daily dose 10 mg/kg): 41%
Uterus Total Area (retired breeder OVX rats; daily dose 10 mg/kg): 1.38 Mm^2
Percent inhibition in EE induced uterine weight gain (immature OVX rats [5]): 32%
LC50 (MCF-7 cells): Inactive

melting point: 150 °C
SMILES: CS(=O)(=O)c1ccc(C(=O)c2cccc3ccccc23)cc1 [Example 2, (4-Methylsulfonylphenyl)-naphth-1-yl-ketone]

melting point: 80 °C
SMILES: CSc1ccc(C(O)c2cccc3ccccc23)cc1 (stereo not drawn) [Example 3, (4-Methylthiophenyl)-naphth-1-yl-carbinol]
T/C Ratio ([4]; 50 μM): 1.41

melting point: 160 °C
SMILES: CS(=O)(=O)c1ccc(C(O)c2cccc3ccccc23)cc1 (stereo not drawn) [Example 4, (4-Methylsulfonylphenyl)-naphth-1-yl-carbinol]
T/C Ratio ([4]; 100 μM): 0.97

melting point: 160 °C
SMILES: CS(=O)(=O)c1ccc(C(=O)c2ccc3ccccc3c2)cc1 [Example 8, (4-Methylsulfonylphenyl)-naphth-2-yl-ketone]

melting point: 100 °C
SMILES: CS(=O)(=O)c1ccc(C(O)c2ccc3ccccc3c2)cc1 (stereo not drawn) [Example 9, (4-Methylsulfonylphenyl)-naphth-2-yl-carbinol]
T/C Ratio ([4]; 100 μM): 1.15

SMILES: CCSc1ccc(C(=O)c2cccc3ccccc23)cc1 [Example 11, (4-Ethylthiophenyl)-naphth-1-yl-ketone]
T/C Ratio ([4]; 100 μM): 0.77

SMILES: O=C(c1ccc(OCCN2CCCCC2)cc1)c1c(-c2ccc(O)cc2)sc2cc(O)ccc12 [Raloxifene, reference compound]
T/C ([4]; chick foetal bone assay, concentration not stated): 0.6
